The results in this text go back to ChEMBL document CHEMBL1142129, “Effect of carbapenem administration on establishment of intestinal colonization by vancomycin-resistant enterococci and Klebsiella pneumoniae in mice” (Antimicrob Agents Chemother, 2007).

Values after ≈ are worked out from the molar mass of the structure shown. Active and inactive are the calls of the source. No cut-off for these calls is given here.

For data set [1], the system named is Enterococcus. Nature of the data set: Overgrowth of vancomycin-resistant enterococci growth in mouse intestine assessed in stool 2 days after 5 days treatment relative to saline. Format: functional, organism-based.
Data set [2] concerns Enterococcus. Nature of the data set: Inhibition of growth in Vancomycin-resistant Enterococci C68 by mouse colonization study. The data set is classed as functional.
Data set [3] deals with Klebsiella pneumoniae. Nature of the data set: Overgrowth of Klebsiella pneumonia growth in mouse intestine assessed in stool 2 days after 5 day treatment relative to saline. The data set is classed as functional, organism-based.
Data set [4] concerns Klebsiella pneumoniae. Nature of the data set: Inhibition of growth in Klebsiella pneumoniae P62 by mouse colonization study. Format: functional.
The next data set has as its system Bacteroides sp. Nature of the data set: Inhibition of intestinal colonization of Bacteroides sp in mouse assessed in stool after 3 days relative to saline. The data set is classed as functional, organism-based.
Data set [5] relates to Enterococcus. Nature of the data set: Overgrowth of vancomycin-resistant enterococci growth in mouse intestine assessed in stool 2 days after […] treatment relative to saline. Format: functional, organism-based.
Data set [6] concerns Enterococcus. Nature of the data set: Overgrowth of enterococci in mouse intestine assessed in stool after 3 days. The data set is classed as functional, organism-based.
Data set [7] in a line: Drug level in mouse stool after 3 days. Conditions: read-out: Drug uptake. The data set is classed as ADME, organism-based.
A short description of data set [8]: Drug level in mouse stool after 5 days. The data set is classed as ADME, organism-based. Conditions: read-out: Drug uptake.

Usually MIC stands for the lowest concentration that inhibits growth of the organism. Read a low MIC as inhibition by little substance. Consider `CO/N=C(\C(=O)N[C@@H]1C(=O)N2C(C(=O)O)=C(CSc3nc(=O)c(O)nn3C)CS[C@H]12)c1csc(N)n1` [CEFTRIAXONE], for which the result in the data set with Enterococcus [1], with Klebsiella pneumoniae [3], in the data set on Bacteroides sp., with Enterococcus [5] and in the data set on Enterococcus [6] was Active. The MIC against Enterococcus [2] was more than 10000 µg/mL; against Klebsiella pneumoniae [4], 4 µg/mL (≈ 7.21 µM).
Regarding `CO/N=C(\C(=O)N[C@@H]1C(=O)N2C(C(=O)O)=C(CSc3nc(=O)c(=O)[nH]n3C)CS[C@H]12)c1csc(N)n1` [CEFTRIAXONE], the concentration at 72 h in [7] was found to be 93800 ng/g.
In the case of `C[C@@H](O)[C@H]1C(=O)N2C(C(=O)O)=C(S[C@@H]3CN[C@H](C(=O)Nc4cccc(C(=O)O)c4)C3)[C@H](C)[C@H]12` [ERTAPENEM], the concentration at 120 h in data set [8] is 10500 ng/g. In addition, in data set [7], the concentration at 72 h was less than 5000 ng/g. In addition, the result with Enterococcus [1] and with Klebsiella pneumoniae [3] was inactive. In addition, the MIC was more than 1020 µg/mL in the data set on Enterococcus [2] and less than 0.25 µg/mL in the data set with Klebsiella pneumoniae [4]. Also, the outcome in the data set on Bacteroides sp. and in the data set with Enterococcus [6] was Active.
